Test results published in patent US6071896A, “Suppression of thromboxane levels by percutaneous administration of aspirin” (Gundersen Clinic, Ltd., priority 1998, dated 2000).
Ends that are not written are not given here.

Legend:
[1] = system: PGI2 formation in response to intravenous bradykinin; assay: Urinary PGI-M excretion at rest and after bradykinin infusion, Example 3; type: in vivo, human; settings: 4 subjects; intravenous 100-800 ng/kg/min
Experimental: In an additional 4 subjects, we examined the increase in PGI2 formation in response to intravenous bradykinin prior to and following oral aspirin 75 mg or dermal aspirin 750 mg daily for 14 days. The protocol for bradykinin has been described previously [Clark, N.Engl.J.Med 325:1137 (1991)]. Volunteers were admitted after an overnight fast to the Clinical Research Center. Blood samples were obtained for serum TXB2 and the subject asked to void. Through a peripheral vein, 1 liter of normal saline was infused over 1 hour. After a further hour, bradykinin was infused in incremental doses of 100-800 ng/kg/min, each over 15 mm. The infusion was continued at the maximum tolerated dose for a total period of 2 hr. Blood pressure and heart rate were monitored continuously. Urine was collected in separate 2 hr aliquots prior to, during and following the bradykinin infusion.
^1 The excretion of TXM and PGIM before and following dermal aspirin
750 mg/day or oral aspirin 75 mg/day for 10 days. Urine samples were
collected over 2 hr before (rest) and following the administration of […]

[2] = system: PGI2 formation in response to intravenous bradykinin; settings: on average; cited from earlier work

Q: Which “Increase in PGI-M excretion induced by bradykinin” value [1] does the source give for RPPGFSPFR [bradykinin] here?
A: 5.1±6 fold

Q: And the “Increase in PGI2 biosynthesis by bradykinin, previous studies” value [2]?
A: 2-6 fold
